Experimental data published in PMC12615753, “Glutathione as a taste modulator: molecular mechanisms of interaction with umami and sweet taste receptors” (Food Chemistry: Molecular Sciences, 2025).

Molecular target: T1, hTAS1R2/hTAS1R3 (Homo sapiens, UniProt Q7RTX0+Q8TE23)
T1 construct: expressed in transfected cells
T1 sequence (Q8TE23 20-839): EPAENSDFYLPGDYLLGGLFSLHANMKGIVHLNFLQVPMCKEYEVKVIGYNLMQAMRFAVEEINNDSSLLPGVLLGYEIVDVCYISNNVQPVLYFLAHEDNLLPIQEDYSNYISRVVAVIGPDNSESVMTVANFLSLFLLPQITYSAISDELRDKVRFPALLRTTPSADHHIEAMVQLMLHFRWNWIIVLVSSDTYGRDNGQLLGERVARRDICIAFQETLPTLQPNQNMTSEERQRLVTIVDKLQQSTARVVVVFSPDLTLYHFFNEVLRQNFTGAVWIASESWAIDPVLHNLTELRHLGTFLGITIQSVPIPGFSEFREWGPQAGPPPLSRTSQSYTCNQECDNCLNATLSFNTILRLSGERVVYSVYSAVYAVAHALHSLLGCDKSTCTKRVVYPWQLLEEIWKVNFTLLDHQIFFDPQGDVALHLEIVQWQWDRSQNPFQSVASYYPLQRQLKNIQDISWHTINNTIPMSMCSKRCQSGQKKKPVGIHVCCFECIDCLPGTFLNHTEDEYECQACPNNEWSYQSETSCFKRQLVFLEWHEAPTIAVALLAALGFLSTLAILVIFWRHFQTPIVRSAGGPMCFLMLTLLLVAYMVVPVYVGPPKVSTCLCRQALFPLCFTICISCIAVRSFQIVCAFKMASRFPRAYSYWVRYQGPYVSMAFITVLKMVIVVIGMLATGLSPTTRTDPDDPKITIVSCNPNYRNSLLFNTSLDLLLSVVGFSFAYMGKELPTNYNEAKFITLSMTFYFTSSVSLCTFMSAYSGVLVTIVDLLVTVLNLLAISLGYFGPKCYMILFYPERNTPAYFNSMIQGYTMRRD
T1 sequence (Q7RTX0 21-852): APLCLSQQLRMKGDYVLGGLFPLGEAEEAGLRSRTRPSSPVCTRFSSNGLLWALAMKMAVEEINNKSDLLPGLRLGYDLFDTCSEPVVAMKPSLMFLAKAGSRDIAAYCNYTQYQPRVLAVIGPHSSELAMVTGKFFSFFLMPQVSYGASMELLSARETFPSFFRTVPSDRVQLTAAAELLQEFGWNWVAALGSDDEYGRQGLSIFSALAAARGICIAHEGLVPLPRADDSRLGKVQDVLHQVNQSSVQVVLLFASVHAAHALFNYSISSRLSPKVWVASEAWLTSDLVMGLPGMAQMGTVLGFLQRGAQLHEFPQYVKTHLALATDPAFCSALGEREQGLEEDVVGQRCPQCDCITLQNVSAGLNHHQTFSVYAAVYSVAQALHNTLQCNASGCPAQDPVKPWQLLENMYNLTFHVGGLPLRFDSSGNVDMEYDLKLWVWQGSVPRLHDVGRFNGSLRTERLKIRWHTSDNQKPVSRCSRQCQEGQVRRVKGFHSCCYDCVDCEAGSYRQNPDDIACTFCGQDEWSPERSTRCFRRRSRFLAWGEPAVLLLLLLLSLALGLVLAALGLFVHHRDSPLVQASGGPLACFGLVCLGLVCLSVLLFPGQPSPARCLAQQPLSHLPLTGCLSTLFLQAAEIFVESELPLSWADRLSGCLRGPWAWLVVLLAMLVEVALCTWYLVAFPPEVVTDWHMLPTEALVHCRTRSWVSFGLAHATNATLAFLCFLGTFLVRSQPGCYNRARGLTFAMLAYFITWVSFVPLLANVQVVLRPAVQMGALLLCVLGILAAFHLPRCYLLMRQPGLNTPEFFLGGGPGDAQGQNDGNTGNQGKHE
Test: Calcium assay in transfected HEK293T/17 cells, sweet taste receptor
Assay type: cell-based
Conditions: for EC50: agonist alone, Fig. 2
Description: HEK293T/17 cells (ATCC CRL-11268) were seeded into clear bottom black 96-well plates coated with poly-D-lysine at a density of 32500 cells/well in 100 μL of DMEM containing 4.5 g/L glucose and supplemented with penicillin/streptomycin, 2 mM GlutaMAX and 10 % dialyzed fetal bovine serum. The plates were incubated for 24 h at 37 °C and 7.3 % CO2 in a humidified atmosphere. After incubation, using Fugene® 4 K (0.46 μL/well, Promega, Illkirch, France), the cells were transiently transfected with pcDNA3-hTAS1R1-WT (60 ng/well) or TAS1R1 mutants, pcDNA4-rTAS1R3 (60 ng/well), pcDNA3-Gα15i2 (10 ng/well), and pGP-CMV-GCaMP6s (Addgene #40753; 10 ng/well) as a genetically encoded calcium indicator. Twenty-four hours after transfection, the HEK293T/17 cells were rinsed with 100 μL of C1 buffer (130 mM NaCl, 5 mM KCl, 10 mM HEPES, 2 mM CaCl2, and 5 mM sodium pyruvate, pH 7.4). For each molecule tested, a semi-logarithmic concentration range was created consisting of seven increasing concentrations and a negative control (zero dose) made of buffer C1. […] After 20 s of basal fluorescence calcium measurement, the cells were stimulated via automatic injection of a range of compounds in eight wells, and the signal emission was recorded for an additional 70 s, via a FlexStation 3® fluorometric microplate reader (Molecular Devices, San Jose, CA, USA). […] The emitted fluorescence was measured at a wavelength of 510 nm after excitation at 488 nm. […] For each well, the decrease in the raw fluorescence as the relative fluorescence changed was calculated as ΔF/F0. Replicates were averaged for the wells subjected to the same stimuli, the background signal was subtracted, and the fluorescence changes in mock-transfected cells were subtracted. The half-maximal effective concentration (EC50) and maximal signal amplitude (max ∆F/F0) were calculated via non-linear regression of the sigmoidal function four-parameter logistic equation [f(x) = min + (max − min)/(1 + (x/EC50)^nH)] via SigmaPlot 15.0 software (Grafiti LLC, Palo Alto, CA, USA). […]

Compound: OC[C@H]1O[C@H](O[C@]2(CCl)O[C@H](CCl)[C@@H](O)[C@@H]2O)[C@H](O)[C@@H](O)[C@H]1Cl [sucralose, reference compound]
- EC50: 61 ± 2 µM

Compound: N[C@@H](CCC(=O)N[C@@H](CS)C(=O)NCC(=O)O)C(=O)O [GSH, γ-L-glutamyl-L-cysteinyl-glycine]
- effect of 10 mM GSH on the response to sucralose: unaffected
- EC50: 591 ± 344 µM
